The values that follow come from patent US11332503B2, “Peptides for treatment and prevention of hyperglycaemia” (UNIVERSITE DE STRASBOURG, priority 2017, dated 2022).

For this test, the system named is human adipocytes. Put plainly: Glucose entry in human adipocytes after native or stapled peptide treatment (FIG. 4D-E). It is filed as cell-based. The note with it: native peptide, absence of insulin. The text has this:
FIG. 4: In vitro characterization of two peptides for their glucose absorption triggering capacity. • (A) Representative picture depicting the cellular entry assessment of the mixture of FAM-labelled stapled peptides A (SEQ ID No 9) and B (SEQ ID No 11) in human adipocytes. DIC: Differential interference contrast mode for living cell acquisition in left panel. In right panel, fluorescent detection of the FAM-labelled peptide with the labelled plasma membrane (PM). • (B) 3D images of the cellular uptake of PATAD peptides identified in FIG. 3; either peptide A (left panel) or peptide B (right panel) treated adipocyte showing the spots inside the peptide inside the adipocyte. • (C) Photographs showing absorption of 2-NBDG in absence of INS in adipocytes following treatment with a combination of the stapled peptides A and B. • (D) Quantification of intracellular glucose analogue 2-NB in absence of INS in adipocytes following the indicated peptide treatment (n=8 per group). • (E) Quantification of intracellular glucose analogue 2-NB in presence of INS in adipocytes following the indicated peptide treatment (n=8 per group). […]
Mature adipocytes were cultured in 96 well plate. […] 24 hours later, the glucose absorption capacity if the treated cells were assessed using the Glucose Uptake Colorimetric Assay kit from Bio Vision (Catalog #: K676-100). […]

Take “SICKGLMTKHPAKRLGCGPEG (native or hydrocarbon-stapled; listed as Homo sapiens) [peptide B, PATAD peptide from human αPKC, tested native and stapled]”: the “entry of glucose into the adipocyte” value was “significant entry of glucose”.
